Among the data in ChEMBL document CHEMBL2375281, “Exploring the UDP pocket of LpxC through amino acid analogs” (Bioorg Med Chem Lett, 2013) are logD values, retold here.

Where only a bound is given, the exact number is not on record here.

This data set is described as follows: Lipophilicity, log D of the compound. Format: physicochemical. The settings on record: octanol/water.
As for `NC[C@H](NC(=O)c1ccc(C#Cc2ccccc2)cc1)C(=O)NO`, the logD was 2.
The result for `CC(C)C(NC(=O)c1ccc(C#Cc2ccccc2)cc1)C(=O)NO` (racemic) reads over 3; that for `O=C(NC1(C(=O)NO)CCC1)c1ccc(C#Cc2ccccc2)cc1`, over 3.
As for `CS(=O)(=O)C[C@H](NC(=O)c1ccc(C#Cc2ccccc2)cc1)C(=O)NO`, the figure is 2; as for `O=C(NC1(C(=O)NO)CCCCC1)c1ccc(C#Cc2ccccc2)cc1`, over 3.
As for `O=C(NC1(C(=O)NO)CCS(=O)(=O)CC1)c1ccc(C#Cc2ccccc2)cc1`, the figure is 3.
In the case of `O=C(N[C@@H](CO)C(=O)NO)c1ccc(C#Cc2ccccc2)cc1`, the logD was 2.
The compound `O=C(NC1(C(=O)NO)CCNCC1)c1ccc(C#Cc2ccccc2)cc1` had a logD of 3.
As for `O=C(NC1(C(=O)NO)CCN(Cc2ccccc2)CC1)c1ccc(C#Cc2ccccc2)cc1`, the figure is over 3; as for `O=C(NC1(C(=O)NO)CCOCC1)c1ccc(C#Cc2ccccc2)cc1`, over 4.
`O=C(N[C@@H](C(=O)NO)c1ccccc1)c1ccc(C#Cc2ccccc2)cc1` came in with a pH-dependent lipophilicity (logD) of over 3.
The result for `C[C@H](O)[C@H](NC(=O)c1ccc(C#Cc2ccccc2)cc1)C(=O)NO` reads 2; that for `CC(C)(NC(=O)c1ccc(C#Cc2ccccc2)cc1)C(=O)NO`, 3.
As to `C#CCNC(=O)C[C@H](NC(=O)c1ccc(C#Cc2ccccc2)cc1)C(=O)NO`, the pH-dependent lipophilicity (logD) stood at 3.
For `O=C(N[C@H](C(=O)NO)c1ccccc1)c1ccc(C#Cc2ccccc2)cc1`, the log distribution coefficient (logD) is 3.
As for `NC(=O)C[C@H](NC(=O)c1ccc(C#Cc2ccccc2)cc1)C(=O)NO`, the logD worked out at 1.
The result for `CC(NC(=O)c1ccc(C#Cc2ccccc2)cc1)C(=O)NO` (racemic) reads over 3.
As for `CSC[C@H](NC(=O)c1ccc(C#Cc2ccccc2)cc1)C(=O)NO`, the figure is 3; as for `O=C(NC1(C(=O)NO)CCSCC1)c1ccc(C#Cc2ccccc2)cc1`, over 3; as for `O=C(CNC(=O)c1ccc(C#Cc2ccccc2)cc1)NO`, 3.
As for `COCCNC(=O)C[C@H](NC(=O)c1ccc(C#Cc2ccccc2)cc1)C(=O)NO`, the figure is 2.
Compound `O=C(C[C@H](NC(=O)c1ccc(C#Cc2ccccc2)cc1)C(=O)NO)NCCCO` yielded a logD of 2.
For the compound `O=C(N[C@H](CO)C(=O)NO)c1ccc(C#Cc2ccccc2)cc1`, the logD was determined as 2.

As a reminder, the logD is lipophilicity at a set pH, counting ionised and neutral species. Low readings indicate a more hydrophilic compound, high ones a more lipophilic compound.
